Each structure is given as a SMILES string.

The target of one test is FAAH (Mus musculus (Mouse), UniProt O08914). In words: Mouse brain proteomes from inhibitor treated mice (oral gavage, sacrifice 4 h after administration, ABPP analysis), FAAH. It is filed as in vivo. To be noted: 5 mg/kg oral gavage. As to the method: (§1) Preparation of Mouse Brain Proteomes from Inhibitor Treated Mice.
(§2) Inhibitors were administered to wild-type C57Bl/6J by oral gavage in a vehicle, e.g. PEG400/Ethanol/PBS (7/2/1). Each animal was sacrificed 4 h following administration and brain proteomes were prepared and analyzed according to previously established methods (See Niphakis, M. J., et al. (2011) ACS Chem. Neurosci. and Long, J. Z., et al. Nat. Chem. Biol. 5:37-44). Data from this assay is shown in Table 2 (% inhibition at 5 mg/kg).

Another test concerns the target ABHD6 (Mus musculus (Mouse), UniProt Q8R2Y0). In words: Mouse brain proteomes from inhibitor treated mice (oral gavage, sacrifice 4 h after administration, ABPP analysis), ABHD6. The test is classed as in vivo. To be noted: 5 mg/kg oral gavage. On the procedure:
as §1, §2

Chain of ABHD6 (Q8R2Y0 whole entry): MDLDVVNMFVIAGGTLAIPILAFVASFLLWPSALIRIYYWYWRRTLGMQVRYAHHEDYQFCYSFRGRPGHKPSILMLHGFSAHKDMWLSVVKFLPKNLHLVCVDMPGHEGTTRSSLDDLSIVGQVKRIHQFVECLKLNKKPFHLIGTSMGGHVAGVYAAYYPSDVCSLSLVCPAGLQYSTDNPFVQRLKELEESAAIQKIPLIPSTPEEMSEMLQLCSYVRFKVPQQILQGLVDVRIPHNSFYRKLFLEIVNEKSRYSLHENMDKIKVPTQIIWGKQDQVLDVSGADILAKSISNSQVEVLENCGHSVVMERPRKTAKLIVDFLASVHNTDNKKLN
Chain of FAAH (O08914 whole entry): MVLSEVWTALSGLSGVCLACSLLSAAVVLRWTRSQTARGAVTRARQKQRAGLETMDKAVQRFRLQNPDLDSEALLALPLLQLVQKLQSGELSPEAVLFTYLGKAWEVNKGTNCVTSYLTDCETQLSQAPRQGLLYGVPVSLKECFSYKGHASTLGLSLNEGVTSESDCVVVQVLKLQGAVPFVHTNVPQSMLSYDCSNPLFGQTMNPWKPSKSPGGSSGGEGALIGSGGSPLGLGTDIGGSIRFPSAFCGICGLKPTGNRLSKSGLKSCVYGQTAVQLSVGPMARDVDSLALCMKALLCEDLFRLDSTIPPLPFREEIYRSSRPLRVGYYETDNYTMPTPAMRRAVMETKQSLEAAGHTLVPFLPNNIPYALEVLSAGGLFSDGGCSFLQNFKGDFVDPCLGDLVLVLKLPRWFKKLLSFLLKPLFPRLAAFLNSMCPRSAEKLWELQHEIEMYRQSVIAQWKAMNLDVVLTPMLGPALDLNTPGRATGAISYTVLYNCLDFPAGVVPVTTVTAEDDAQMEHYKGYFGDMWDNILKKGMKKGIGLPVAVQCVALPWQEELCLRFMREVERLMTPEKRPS

In the case of `O=C(COc1cc(CN2CCCC23CCN(C(=O)OC(C(F)(F)F)C(F)(F)F)CC3)cc(C(F)(F)F)c1)N1CCCC1` [Example 168, 1,1,1,3,3,3-Hexafluoropropan-2-yl 1-(3-(2-oxo-2-(pyrrolidin-1-yl)ethoxy)-5-(trifluoromethyl)benzyl)-1,8-diazaspiro[4.5]decane-8-carboxylate], the “FAAH % Inh 5 mg/kg (mouse)” value on FAAH is on record as “# (# is < 25%)”. In addition, the “ABHD6 % Inh 5 mg/kg (mouse)” value on ABHD6 is “# (# is < 25%)”.
`O=C(OC(C(F)(F)F)C(F)(F)F)N1CCC2(CCCN2Cc2cc(OC3CCOCC3)cc(C(F)(F)F)c2)CC1` [Example 170, 1,1,1,3,3,3-Hexafluoropropan-2-yl 1-(3-(tetrahydro-2H-pyran-4-yloxy)-5-(trifluoromethyl)benzyl)-1,8-diazaspiro[4.5]decane-8-carboxylate]: the “FAAH % Inh 5 mg/kg (mouse)” value at FAAH is “# (# is < 25%)”. Besides, at ABHD6, the “ABHD6 % Inh 5 mg/kg (mouse)” value is given as “# (# is < 25%)”.
On to `O=C(OC(C(F)(F)F)C(F)(F)F)N1CCC2(CCCN2Cc2ccc(C(F)(F)F)cc2Oc2cccnc2)CC1` [Example 173, 1,1,1,3,3,3-Hexafluoropropan-2-yl 1-(2-(pyridin-3-yloxy)-4-(trifluoromethyl)benzyl)-1,8-diazaspiro[4.5]decane-8-carboxylate], for which the “FAAH % Inh 5 mg/kg (mouse)” value at FAAH is given as “# (# is < 25%)”. Further, at ABHD6, the “ABHD6 % Inh 5 mg/kg (mouse)” value was “# (# is < 25%)”.
In the case of `O=C(OC(C(F)(F)F)C(F)(F)F)N1CCC2(CCCN2Cc2cc(Oc3cccnc3)cc(C(F)(F)F)c2)CC1` [Example 174, 1,1,1,3,3,3-Hexafluoropropan-2-yl 1-(3-(pyridin-3-yloxy)-5-(trifluoromethyl)benzyl)-1,8-diazaspiro[4.5]decane-8-carboxylate], at FAAH, the “FAAH % Inh 5 mg/kg (mouse)” value is reported as “# (# is < 25%)”. Besides, the “ABHD6 % Inh 5 mg/kg (mouse)” value at ABHD6 is “# (# is < 25%)”.
For the molecule `O=C(OC(C(F)(F)F)C(F)(F)F)N1CCC2(CCCN2Cc2cc(OC3CCS(=O)(=O)CC3)cc(C(F)(F)F)c2)CC1` [Example 176, 1,1,1,3,3,3-Hexafluoropropan-2-yl 1-(3-((1,1-dioxidotetrahydro-2H-thiopyran-4-yl)oxy)-5-(trifluoromethyl)benzyl)-1,8-diazaspiro[4.5]decane-8-carboxylate], the “FAAH % Inh 5 mg/kg (mouse)” value on FAAH is “# (# is < 25%)”. For the same molecule, the “ABHD6 % Inh 5 mg/kg (mouse)” value on ABHD6 is “# (# is < 25%)”.
Regarding `CN1CCN(c2c(Cl)cccc2CN2CC3(CCN(C(=O)OC(C(F)(F)F)C(F)(F)F)CC3)CC2(C)C)CC1` [Example 189, 1,1,1,3,3,3-Hexafluoropropan-2-yl 2-(3-chloro-2-(4-methylpiperazin-1-yl)benzyl)-3,3-dimethyl-2,8-diazaspiro[4.5]decane-8-carboxylate], the “FAAH % Inh 5 mg/kg (mouse)” value at FAAH was “# (# is < 25%)”. On ABHD6, the “ABHD6 % Inh 5 mg/kg (mouse)” value was “# (# is < 25%)”.
With `CS(=O)(=O)C1CCN(c2cc(C(F)(F)F)ccc2CN2CCCC23CCN(C(=O)OC(C(F)(F)F)C(F)(F)F)CC3)C1` (stereo not drawn) [Example 193, 1,1,1,3,3,3-Hexafluoropropan-2-yl 1-(2-(3-(methylsulfonyl)pyrrolidin-1-yl)-4-(trifluoromethyl)benzyl)-1,8-diazaspiro[4.5]decane-8-carboxylate], the “FAAH % Inh 5 mg/kg (mouse)” value at FAAH was “# (# is < 25%)”. In addition, the “ABHD6 % Inh 5 mg/kg (mouse)” value at ABHD6 is given as “# (# is < 25%)”.
For `O=C(O)C1CCN(Cc2cc(Cl)cc(CN3CCCC34CCN(C(=O)OC(C(F)(F)F)C(F)(F)F)CC4)c2)CC1` [Example 194, 1-(3-Chloro-5-((8-(((1,1,1,3,3,3-hexafluoropropan-2-yl)oxy)carbonyl)-1,8-diazaspiro[4.5]decan-1-yl)methyl)benzyl)piperidine-4-carboxylic acid], the “FAAH % Inh 5 mg/kg (mouse)” value on FAAH was “# (# is < 25%)”. Further, the “ABHD6 % Inh 5 mg/kg (mouse)” value at ABHD6 is on record as “# (# is < 25%)”.
Regarding `O=C(O)C1CCN(c2cc(C(F)(F)F)ccc2CN2CCCC23CCN(C(=O)OC(C(F)(F)F)C(F)(F)F)CC3)C1` (stereo not drawn) [Example 199], the “FAAH % Inh 5 mg/kg (mouse)” value at FAAH is on record as “# (# is < 25%)”. The “ABHD6 % Inh 5 mg/kg (mouse)” value on ABHD6 is “# (# is < 25%)”.
